Experimental data from patent US20220009920A1 (GB005, Inc., priority 2020, published 2022).

Key:
Assay in all cases: Large panel kinase profiling
Type in all cases: biochemical
Settings in all cases: 1 μM test article, 1 mM ATP
[1] = target: ROCK1 (Homo sapiens, UniProt Q13464)
Outline: (§1)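 Reactions contain 1 mM ATP and 1 μM test article; the CSox peptide sensor reports phosphorylation as fluorescence gain. Temperature is held at 30° C. while signal (360 nm excitation, 485 nm emission) is recorded every 1 min.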

[2] = target: T1, MAP3K2 (Homo sapiens, UniProt Q9Y2U5)
T1 construct: AssayQuant Technologies, Inc. (service provider)
T1 sequence (Q9Y2U5 1-619): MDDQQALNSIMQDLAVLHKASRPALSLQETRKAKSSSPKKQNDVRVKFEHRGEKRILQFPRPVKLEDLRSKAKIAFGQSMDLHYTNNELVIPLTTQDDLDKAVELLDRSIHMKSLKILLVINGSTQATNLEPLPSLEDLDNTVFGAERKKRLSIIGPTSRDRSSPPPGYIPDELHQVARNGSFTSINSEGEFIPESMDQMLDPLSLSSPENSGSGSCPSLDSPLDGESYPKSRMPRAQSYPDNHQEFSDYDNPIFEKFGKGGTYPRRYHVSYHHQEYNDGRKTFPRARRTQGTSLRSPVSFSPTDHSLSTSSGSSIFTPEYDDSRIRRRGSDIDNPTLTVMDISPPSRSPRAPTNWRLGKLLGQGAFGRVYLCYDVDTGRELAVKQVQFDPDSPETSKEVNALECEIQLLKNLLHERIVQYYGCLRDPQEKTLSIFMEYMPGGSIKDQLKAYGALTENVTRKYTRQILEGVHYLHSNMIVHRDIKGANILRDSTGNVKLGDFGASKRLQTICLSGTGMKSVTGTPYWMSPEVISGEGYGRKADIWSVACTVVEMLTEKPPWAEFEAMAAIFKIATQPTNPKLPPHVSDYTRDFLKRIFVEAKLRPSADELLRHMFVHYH
Outline: as §1

[3] = target: T2, IGF1R (Homo sapiens, UniProt P08069)
T2 construct: AssayQuant Technologies, Inc. (service provider)
T2 sequence (P08069 31-1367, species assumed): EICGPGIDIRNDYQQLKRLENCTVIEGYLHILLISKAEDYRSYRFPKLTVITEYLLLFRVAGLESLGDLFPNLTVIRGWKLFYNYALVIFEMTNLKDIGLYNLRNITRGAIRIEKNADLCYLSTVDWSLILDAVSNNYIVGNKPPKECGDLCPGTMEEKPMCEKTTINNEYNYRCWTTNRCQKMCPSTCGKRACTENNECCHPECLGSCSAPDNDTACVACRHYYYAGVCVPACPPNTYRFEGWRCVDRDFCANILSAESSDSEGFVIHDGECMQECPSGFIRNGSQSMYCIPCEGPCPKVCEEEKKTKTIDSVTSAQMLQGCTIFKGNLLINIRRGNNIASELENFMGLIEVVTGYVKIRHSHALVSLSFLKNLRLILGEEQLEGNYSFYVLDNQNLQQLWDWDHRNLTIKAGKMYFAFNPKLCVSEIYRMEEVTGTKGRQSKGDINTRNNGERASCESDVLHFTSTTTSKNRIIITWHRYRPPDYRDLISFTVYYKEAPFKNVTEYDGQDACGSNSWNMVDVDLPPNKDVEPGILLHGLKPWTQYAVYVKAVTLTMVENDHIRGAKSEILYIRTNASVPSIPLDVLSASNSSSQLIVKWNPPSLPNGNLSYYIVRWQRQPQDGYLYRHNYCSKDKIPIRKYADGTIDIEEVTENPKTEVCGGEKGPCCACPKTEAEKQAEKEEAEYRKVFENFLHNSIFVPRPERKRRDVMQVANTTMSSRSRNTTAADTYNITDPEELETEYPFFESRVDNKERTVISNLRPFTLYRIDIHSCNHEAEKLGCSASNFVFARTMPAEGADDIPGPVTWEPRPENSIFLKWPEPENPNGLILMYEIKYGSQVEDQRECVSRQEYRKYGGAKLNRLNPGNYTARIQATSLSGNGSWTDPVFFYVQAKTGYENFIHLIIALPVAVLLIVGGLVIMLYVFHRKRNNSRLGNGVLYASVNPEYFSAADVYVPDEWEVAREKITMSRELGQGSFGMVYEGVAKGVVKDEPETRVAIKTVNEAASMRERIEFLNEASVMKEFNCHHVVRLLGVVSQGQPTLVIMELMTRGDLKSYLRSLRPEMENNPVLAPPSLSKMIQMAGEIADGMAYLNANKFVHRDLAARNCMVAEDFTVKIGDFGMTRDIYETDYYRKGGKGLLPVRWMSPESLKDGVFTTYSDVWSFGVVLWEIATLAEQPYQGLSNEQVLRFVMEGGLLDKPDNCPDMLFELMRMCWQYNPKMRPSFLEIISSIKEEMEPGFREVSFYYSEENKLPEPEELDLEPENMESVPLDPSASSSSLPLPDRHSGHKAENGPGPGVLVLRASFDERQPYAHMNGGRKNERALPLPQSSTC
Outline: as §1

[4] = target: PIM1 (Homo sapiens, UniProt P11309)
PIM1, sequence (P11309 whole entry, species assumed): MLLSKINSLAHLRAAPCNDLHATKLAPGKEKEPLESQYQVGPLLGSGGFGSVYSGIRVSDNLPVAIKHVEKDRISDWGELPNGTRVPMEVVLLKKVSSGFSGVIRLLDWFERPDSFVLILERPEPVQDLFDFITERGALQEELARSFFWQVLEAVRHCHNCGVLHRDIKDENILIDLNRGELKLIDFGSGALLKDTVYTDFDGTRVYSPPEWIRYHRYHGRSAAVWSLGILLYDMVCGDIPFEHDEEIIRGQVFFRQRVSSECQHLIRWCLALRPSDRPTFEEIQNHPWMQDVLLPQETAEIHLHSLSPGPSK
Outline: as §1

[5] = target: T3, MAP4K4/HGK (Homo sapiens, UniProt O95819)
T3 construct: AssayQuant Technologies, Inc. (service provider)
T3 sequence (O95819 whole entry): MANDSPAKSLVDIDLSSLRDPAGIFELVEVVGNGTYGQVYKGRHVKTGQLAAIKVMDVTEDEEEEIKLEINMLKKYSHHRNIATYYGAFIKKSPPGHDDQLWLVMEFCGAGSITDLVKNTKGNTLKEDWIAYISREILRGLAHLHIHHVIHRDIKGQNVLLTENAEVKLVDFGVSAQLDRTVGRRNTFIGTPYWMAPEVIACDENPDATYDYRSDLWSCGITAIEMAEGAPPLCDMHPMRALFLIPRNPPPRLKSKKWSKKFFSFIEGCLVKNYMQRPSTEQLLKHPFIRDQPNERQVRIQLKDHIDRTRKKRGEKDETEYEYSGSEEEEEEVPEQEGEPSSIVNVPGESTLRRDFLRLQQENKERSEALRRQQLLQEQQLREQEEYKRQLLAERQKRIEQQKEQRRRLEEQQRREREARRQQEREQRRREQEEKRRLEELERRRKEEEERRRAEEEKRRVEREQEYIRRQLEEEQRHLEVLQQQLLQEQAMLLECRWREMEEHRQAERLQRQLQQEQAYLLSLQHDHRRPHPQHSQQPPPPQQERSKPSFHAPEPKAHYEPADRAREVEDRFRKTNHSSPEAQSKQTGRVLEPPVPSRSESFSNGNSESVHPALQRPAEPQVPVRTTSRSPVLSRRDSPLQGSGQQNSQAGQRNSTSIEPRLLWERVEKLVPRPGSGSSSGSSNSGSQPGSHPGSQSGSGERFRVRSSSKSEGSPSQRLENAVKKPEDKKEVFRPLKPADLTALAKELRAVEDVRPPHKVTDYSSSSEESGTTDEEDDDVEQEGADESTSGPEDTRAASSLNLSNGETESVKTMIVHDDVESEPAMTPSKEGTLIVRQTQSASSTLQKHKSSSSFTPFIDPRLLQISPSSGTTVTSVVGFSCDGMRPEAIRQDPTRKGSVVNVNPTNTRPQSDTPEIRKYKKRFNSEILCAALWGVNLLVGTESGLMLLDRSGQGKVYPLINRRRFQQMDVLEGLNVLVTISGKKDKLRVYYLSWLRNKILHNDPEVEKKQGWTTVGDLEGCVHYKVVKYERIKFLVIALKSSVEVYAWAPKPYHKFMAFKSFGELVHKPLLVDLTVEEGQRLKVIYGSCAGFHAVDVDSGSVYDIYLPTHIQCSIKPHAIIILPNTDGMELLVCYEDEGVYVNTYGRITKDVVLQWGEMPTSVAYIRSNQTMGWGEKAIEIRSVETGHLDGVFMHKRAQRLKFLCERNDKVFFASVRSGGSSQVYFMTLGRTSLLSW
Outline: as §1

[6] = target: T4, MINK1 (Homo sapiens, UniProt Q8N4C8)
T4 construct: AssayQuant Technologies, Inc. (assay service)
T4 sequence (Q8N4C8 whole entry, species assumed): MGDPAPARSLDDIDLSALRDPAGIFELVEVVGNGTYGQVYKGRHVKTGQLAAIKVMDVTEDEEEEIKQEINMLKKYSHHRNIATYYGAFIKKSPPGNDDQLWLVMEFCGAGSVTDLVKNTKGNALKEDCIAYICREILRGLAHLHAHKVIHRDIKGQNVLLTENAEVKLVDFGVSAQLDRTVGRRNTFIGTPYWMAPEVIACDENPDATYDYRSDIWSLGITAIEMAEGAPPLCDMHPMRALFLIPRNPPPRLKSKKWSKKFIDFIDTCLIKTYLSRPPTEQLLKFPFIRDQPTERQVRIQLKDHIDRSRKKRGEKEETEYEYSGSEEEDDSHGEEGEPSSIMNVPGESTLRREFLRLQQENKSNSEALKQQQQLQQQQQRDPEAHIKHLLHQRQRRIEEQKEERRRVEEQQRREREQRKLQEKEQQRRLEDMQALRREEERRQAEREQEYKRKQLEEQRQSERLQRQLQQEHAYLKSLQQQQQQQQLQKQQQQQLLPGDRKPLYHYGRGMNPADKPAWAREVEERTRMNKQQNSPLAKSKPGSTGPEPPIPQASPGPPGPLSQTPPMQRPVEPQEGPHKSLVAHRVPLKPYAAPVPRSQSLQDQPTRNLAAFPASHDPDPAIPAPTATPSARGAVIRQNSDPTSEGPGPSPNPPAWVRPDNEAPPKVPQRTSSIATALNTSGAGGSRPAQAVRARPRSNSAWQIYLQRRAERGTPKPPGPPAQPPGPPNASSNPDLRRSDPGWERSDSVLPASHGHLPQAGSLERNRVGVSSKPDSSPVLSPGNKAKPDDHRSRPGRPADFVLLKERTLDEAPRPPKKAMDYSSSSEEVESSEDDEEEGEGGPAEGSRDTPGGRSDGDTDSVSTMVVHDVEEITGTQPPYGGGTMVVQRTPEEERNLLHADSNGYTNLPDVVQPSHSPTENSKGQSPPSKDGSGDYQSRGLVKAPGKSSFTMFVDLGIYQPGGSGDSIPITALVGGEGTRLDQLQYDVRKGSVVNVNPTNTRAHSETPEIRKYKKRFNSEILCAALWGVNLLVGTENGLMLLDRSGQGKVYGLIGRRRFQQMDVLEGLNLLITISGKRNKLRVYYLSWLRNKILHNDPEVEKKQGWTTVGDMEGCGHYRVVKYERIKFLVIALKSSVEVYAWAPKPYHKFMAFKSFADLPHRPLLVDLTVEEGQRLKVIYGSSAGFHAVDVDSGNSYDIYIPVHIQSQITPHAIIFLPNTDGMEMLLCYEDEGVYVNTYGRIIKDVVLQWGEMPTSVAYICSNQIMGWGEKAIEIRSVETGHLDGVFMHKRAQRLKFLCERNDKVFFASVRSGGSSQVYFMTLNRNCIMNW
Outline: as §1

[7] = target: T5, MAP3K5 (Homo sapiens, UniProt Q99683)
T5 construct: AssayQuant Technologies, Inc. (service provider)
T5 sequence (Q99683 1-1374): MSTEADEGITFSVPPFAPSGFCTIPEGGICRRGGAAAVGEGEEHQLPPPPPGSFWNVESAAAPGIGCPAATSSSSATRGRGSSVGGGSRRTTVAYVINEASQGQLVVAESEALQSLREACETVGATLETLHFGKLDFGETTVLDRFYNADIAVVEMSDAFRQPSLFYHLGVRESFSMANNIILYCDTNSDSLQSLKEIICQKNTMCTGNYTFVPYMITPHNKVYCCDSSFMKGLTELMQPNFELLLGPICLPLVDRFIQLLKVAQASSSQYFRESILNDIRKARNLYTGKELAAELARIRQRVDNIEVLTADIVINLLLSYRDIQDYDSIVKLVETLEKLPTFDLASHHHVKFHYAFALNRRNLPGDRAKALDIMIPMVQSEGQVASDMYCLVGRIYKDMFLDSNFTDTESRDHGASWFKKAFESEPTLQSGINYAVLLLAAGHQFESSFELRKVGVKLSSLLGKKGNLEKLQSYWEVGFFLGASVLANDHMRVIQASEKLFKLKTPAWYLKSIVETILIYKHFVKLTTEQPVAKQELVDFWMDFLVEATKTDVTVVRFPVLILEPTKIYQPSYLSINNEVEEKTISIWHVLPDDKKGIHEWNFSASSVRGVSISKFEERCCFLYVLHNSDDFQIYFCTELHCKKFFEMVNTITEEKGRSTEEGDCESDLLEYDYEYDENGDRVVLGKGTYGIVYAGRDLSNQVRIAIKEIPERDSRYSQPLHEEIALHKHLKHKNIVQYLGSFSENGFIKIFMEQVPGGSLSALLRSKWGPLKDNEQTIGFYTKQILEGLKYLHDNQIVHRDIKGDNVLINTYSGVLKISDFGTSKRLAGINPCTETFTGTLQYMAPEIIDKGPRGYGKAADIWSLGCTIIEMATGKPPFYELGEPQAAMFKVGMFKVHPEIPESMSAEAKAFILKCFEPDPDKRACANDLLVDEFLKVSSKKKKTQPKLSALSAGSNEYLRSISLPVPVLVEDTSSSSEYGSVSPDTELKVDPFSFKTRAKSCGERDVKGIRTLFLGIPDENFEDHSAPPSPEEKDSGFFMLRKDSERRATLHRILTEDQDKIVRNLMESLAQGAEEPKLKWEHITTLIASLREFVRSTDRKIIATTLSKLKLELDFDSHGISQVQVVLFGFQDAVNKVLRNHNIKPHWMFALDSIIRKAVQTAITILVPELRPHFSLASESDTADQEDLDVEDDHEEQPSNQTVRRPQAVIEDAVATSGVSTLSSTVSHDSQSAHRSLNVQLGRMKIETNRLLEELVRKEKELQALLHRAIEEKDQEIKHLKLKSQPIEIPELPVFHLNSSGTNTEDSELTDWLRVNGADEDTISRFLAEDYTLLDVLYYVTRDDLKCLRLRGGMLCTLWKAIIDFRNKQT
Outline: as §1

[8] = target: T6, JAK1(JH1) (Homo sapiens, UniProt P23458)
T6 construct: JAK1(JH1)
T6 sequence (P23458 875-1153 limits assumed, species assumed): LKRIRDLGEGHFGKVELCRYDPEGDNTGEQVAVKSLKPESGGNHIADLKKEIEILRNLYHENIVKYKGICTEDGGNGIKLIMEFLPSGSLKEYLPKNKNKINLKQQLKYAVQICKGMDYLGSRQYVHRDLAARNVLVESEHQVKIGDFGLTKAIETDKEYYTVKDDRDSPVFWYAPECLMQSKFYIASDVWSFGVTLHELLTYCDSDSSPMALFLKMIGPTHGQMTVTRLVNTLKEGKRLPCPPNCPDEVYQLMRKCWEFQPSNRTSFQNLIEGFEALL
Outline: as §1

Row | Structure (SMILES) | inhibition at 1 µM [1] [%] | inhibition at 1 µM [2] [%] | inhibition at 1 µM [3] [%] | inhibition at 1 µM [4] [%] | inhibition at 1 µM [5] [%] | inhibition at 1 µM [6] [%] | inhibition at 1 µM [7] [%] | inhibition at 1 µM [8] [%]
1 | C=CC(=O)N1CCCC(c2c(F)cc(C(N)=O)c3[nH]c4c(c23)CCCCC4)C1 (single isomer, unassigned) [Compound 5-6] | 3.5 | -19 | -16.7 | 7 | -22.7 | -2.8 | -10.4 | 1.3
2 | C=CC(=O)N1CCC[C@@H](c2c(F)cc(C(N)=O)c3[nH]c4c(c23)CC2(CC4)CC2)C1 [Compound 6-2, (S)-5-(1-acryloylpiperidin-3-yl)-6-fluoro-1,2,4,9-tetrahydrospiro[carbazole-3,1′-cyclopropane]-8-carboxamide] | 2.5 | -6.6 | -11.6 | -43 | 2.9 | -22.7 | 20 | 25.6
3 | C=CC(=O)N1CCC[C@@H](c2c(F)cc(C(N)=O)c3[nH]c4c(c23)CCC4)C1 [Compound 10-2, (S)-8-(1-acryloylpiperidin-3-yl)-7-fluoro-1,2,3,4-tetrahydrocyclo-penta[b]indole-5-carboxamide] | 13.7 | 15.7 | -26.1 | -7.1 | -10.5 | -18.4 | 16.7 | 1.9
